Experimental data from ChEMBL document CHEMBL3044670, “Aromatic sulfonyl hydrazides and sulfonyl hydrazones: antimicrobial activity and physical properties” (2013).
In brackets after ≈: the same amount, converted by molar mass.

Legend:
Assay type in all cases: functional
Escherichia coli [1] = test: Antibacterial activity against Escherichia coli ATCC 25922 at 140 ug/disk after 18 to 24 hr by disk diffusion method; conditions: read-out: DIZ
Klebsiella pneumoniae [2] = test: Antibacterial activity against Klebsiella pneumoniae ATCC 13883 at 140 ug/disk after 18 to 24 hr by disk diffusion method; conditions: read-out: DIZ
Pseudomonas fluorescens [3] = test: Antibacterial activity against Pseudomonas fluorescens ATCC 49838 at 140 ug/disk after 18 to 24 hr by disk diffusion method; conditions: read-out: DIZ
Klebsiella aerogenes [4] = test: Antibacterial activity against Enterobacter aerogenes ATCC 13048 at 140 ug/disk after 18 to 24 hr by disk diffusion method; conditions: read-out: DIZ
[5] = test system: Staphylococcus epidermidis; test: Antibacterial activity against Staphylococcus epidermidis ATCC 12228 at 140 ug/disk after 18 to 24 hr by disk diffusion method; conditions: read-out: DIZ
Bacillus subtilis [6] = test: Antibacterial activity against Bacillus subtilis ATCC 6633 at 140 ug/disk after 18 to 24 hr by disk diffusion method; conditions: read-out: DIZ
Enterococcus faecalis [7] = test: Antibacterial activity against Enterococcus faecalis ATCC 29212 at 140 ug/disk after 18 to 24 hr by disk diffusion method; conditions: read-out: DIZ
Bacillus cereus [8] = test: Antibacterial activity against Bacillus cereus ATCC 11778 at 140 ug/disk after 18 to 24 hr by disk diffusion method; conditions: read-out: DIZ
Staphylococcus aureus [9] = test: Antibacterial activity against Staphylococcus aureus ATCC 25923 at 140 ug/disc after 18 to 24 hr by disk diffusion method; conditions: read-out: DIZ
Candida albicans [10] = test: Antifungal activity against Candida albicans ATCC 90028 after 18 to 24 hr by broth microdilution method
Pseudomonas aeruginosa [11] = test: Antibacterial activity against Pseudomonas aeruginosa ATCC 27853 after 18 to 24 hr by broth microdilution method
Escherichia coli [12] = test: Antibacterial activity against Escherichia coli ATCC 25922 after 18 to 24 hr by broth microdilution method
Klebsiella pneumoniae [13] = test: Antibacterial activity against Klebsiella pneumoniae ATCC 13883 after 18 to 24 hr by broth microdilution method
Pseudomonas fluorescens [14] = test: Antibacterial activity against Pseudomonas fluorescens ATCC 49838 after 18 to 24 hr by broth microdilution method
Klebsiella aerogenes [15] = test: Antibacterial activity against Enterobacter aerogenes ATCC 13048 after 18 to 24 hr by broth microdilution method
[16] = test system: Staphylococcus epidermidis; test: Antibacterial activity against Staphylococcus epidermidis ATCC 12228 after 18 to 24 hr by broth microdilution method
Enterococcus faecalis [17] = test: Antibacterial activity against Enterococcus faecalis ATCC 29212 after 18 to 24 hr by broth microdilution method
Bacillus cereus [18] = test: Antibacterial activity against Bacillus cereus ATCC 11778 after 18 to 24 hr by broth microdilution method
Staphylococcus aureus [19] = test: Antibacterial activity against Staphylococcus aureus ATCC 25923 after 18 to 24 hr by broth microdilution method
Candida albicans [20] = test: Antifungal activity against Candida albicans ATCC 90028 at 140 ug/disk after 18 to 24 hr by disk diffusion method; conditions: read-out: DIZ
Pseudomonas aeruginosa [21] = test: Antibacterial activity against Pseudomonas aeruginosa ATCC 27853 at 140 ug/disk after 18 to 24 hr by disk diffusion method; conditions: read-out: DIZ
Bacillus subtilis [22] = test: Antibacterial activity against Bacillus subtilis ATCC 6633 after 18 to 24 hr by broth microdilution method
Bacillus subtilis [23] = test: Antibacterial activity against Bacillus subtilis ATCC 6633 at 30 ug/disk after 18 to 24 hr by disk diffusion method
Bacillus cereus [24] = test: Antibacterial activity against Bacillus cereus ATCC 11778 at 30 ug/disk after 18 to 24 hr by disk diffusion method
Enterococcus faecalis [25] = test: Antibacterial activity against Enterococcus faecalis ATCC 29212 at 30 ug/disk after 18 to 24 hr by disk diffusion method
Staphylococcus aureus [26] = test: Antibacterial activity against Staphylococcus aureus ATCC 25923 at 30 ug/disk after 18 to 24 hr by disk diffusion method
Candida albicans [27] = test: Antifungal activity against Candida albicans ATCC 90028 at 30 ug/disk after 18 to 24 hr by disk diffusion method
Pseudomonas aeruginosa [28] = test: Antibacterial activity against Pseudomonas aeruginosa ATCC 27853 at 30 ug/disk after 18 to 24 hr by disk diffusion method
Escherichia coli [29] = test: Antibacterial activity against Escherichia coli ATCC 25922 at 30 ug/disk after 18 to 24 hr by disk diffusion method
Klebsiella pneumoniae [30] = test: Antibacterial activity against Klebsiella pneumoniae ATCC 13883 at 30 ug/disk after 18 to 24 hr by disk diffusion method
Klebsiella aerogenes [31] = test: Antibacterial activity against Enterobacter aerogenes ATCC 13048 at 30 ug/disk after 18 to 24 hr by disk diffusion method
Pseudomonas fluorescens [32] = test: Antibacterial activity against Pseudomonas fluorescens ATCC 49838 at 30 ug/disk after 18 to 24 hr by disk diffusion method
[33] = test system: Staphylococcus epidermidis; test: Antibacterial activity against Staphylococcus epidermidis ATCC 12228 at 30 ug/disk after 18 to 24 hr by disk diffusion method

O=S(=O)(NCCO)c1ccccc1
zone of inhibition at 140 µg/disc (Escherichia coli [1]): 0 mm
zone of inhibition at 140 µg/disc (Klebsiella pneumoniae [2]): 0 mm
zone of inhibition at 140 µg/disc (Pseudomonas fluorescens [3]): 0 mm
zone of inhibition at 140 µg/disc (Klebsiella aerogenes [4]): 0 mm
zone of inhibition at 140 µg/disc [5]: 0 mm
zone of inhibition at 140 µg/disc (Bacillus subtilis [6]): 0 mm
zone of inhibition at 140 µg/disc (Enterococcus faecalis [7]): 0 mm
zone of inhibition at 140 µg/disc (Bacillus cereus [8]): 0 mm
zone of inhibition at 140 µg/disc (Staphylococcus aureus [9]): 0 mm
MIC (Candida albicans [10]): 1000 µg/mL (≈ 4970 µM)
MIC (Pseudomonas aeruginosa [11]): 1000 µg/mL (≈ 4970 µM)
MIC (Escherichia coli [12]): 1000 µg/mL (≈ 4970 µM)
MIC (Klebsiella pneumoniae [13]): 1000 µg/mL (≈ 4970 µM)
MIC (Pseudomonas fluorescens [14]): 1000 µg/mL (≈ 4970 µM)
MIC (Klebsiella aerogenes [15]): 1000 µg/mL (≈ 4970 µM)
MIC [16]: > 2000 µg/mL
MIC (Enterococcus faecalis [17]): > 2000 µg/mL
MIC (Bacillus cereus [18]): > 2000 µg/mL
MIC (Staphylococcus aureus [19]): > 2000 µg/mL
zone of inhibition at 140 µg/disc (Candida albicans [20]): 0 mm
zone of inhibition at 140 µg/disc (Pseudomonas aeruginosa [21]): 0 mm
MIC (Bacillus subtilis [22]): 1000 µg/mL (≈ 4970 µM)

C/C(=N\N(C)S(=O)(=O)c1ccccc1)c1ccccc1O
zone of inhibition at 140 µg/disc (Escherichia coli [1]): 11 mm
zone of inhibition at 140 µg/disc (Klebsiella pneumoniae [2]): 6 mm
zone of inhibition at 140 µg/disc (Pseudomonas fluorescens [3]): 11 mm
zone of inhibition at 140 µg/disc (Klebsiella aerogenes [4]): 5 mm
zone of inhibition at 140 µg/disc [5]: 12 mm
zone of inhibition at 140 µg/disc (Bacillus subtilis [6]): 9 mm
zone of inhibition at 140 µg/disc (Enterococcus faecalis [7]): 9 mm
zone of inhibition at 140 µg/disc (Bacillus cereus [8]): 10 mm
zone of inhibition at 140 µg/disc (Staphylococcus aureus [9]): 10 mm
MIC (Candida albicans [10]): 500 µg/mL (≈ 1640 µM)
MIC (Pseudomonas aeruginosa [11]): 1000 µg/mL (≈ 3290 µM)
MIC (Escherichia coli [12]): 1000 µg/mL (≈ 3290 µM)
MIC (Klebsiella pneumoniae [13]): 1000 µg/mL (≈ 3290 µM)
MIC (Pseudomonas fluorescens [14]): 1000 µg/mL (≈ 3290 µM)
MIC (Klebsiella aerogenes [15]): 1000 µg/mL (≈ 3290 µM)
MIC [16]: 500 µg/mL (≈ 1640 µM)
MIC (Enterococcus faecalis [17]): 1000 µg/mL (≈ 3290 µM)
MIC (Bacillus cereus [18]): 500 µg/mL (≈ 1640 µM)
MIC (Staphylococcus aureus [19]): 500 µg/mL (≈ 1640 µM)
zone of inhibition at 140 µg/disc (Candida albicans [20]): 12 mm
zone of inhibition at 140 µg/disc (Pseudomonas aeruginosa [21]): 5 mm
MIC (Bacillus subtilis [22]): 500 µg/mL (≈ 1640 µM)

CN(/N=C/c1c(O)ccc2ccccc12)S(=O)(=O)c1ccccc1
zone of inhibition at 140 µg/disc (Escherichia coli [1]): 17 mm
zone of inhibition at 140 µg/disc (Klebsiella pneumoniae [2]): 23 mm
zone of inhibition at 140 µg/disc (Pseudomonas fluorescens [3]): 26 mm
zone of inhibition at 140 µg/disc (Klebsiella aerogenes [4]): 18 mm
zone of inhibition at 140 µg/disc [5]: 16 mm
zone of inhibition at 140 µg/disc (Bacillus subtilis [6]): 28 mm
zone of inhibition at 140 µg/disc (Enterococcus faecalis [7]): 17 mm
zone of inhibition at 140 µg/disc (Bacillus cereus [8]): 26 mm
zone of inhibition at 140 µg/disc (Staphylococcus aureus [9]): 19 mm
MIC (Candida albicans [10]): 500 µg/mL (≈ 1470 µM)
MIC (Pseudomonas aeruginosa [11]): 250 µg/mL (≈ 734 µM)
MIC (Escherichia coli [12]): 500 µg/mL (≈ 1470 µM)
MIC (Klebsiella pneumoniae [13]): 250 µg/mL (≈ 734 µM)
MIC (Pseudomonas fluorescens [14]): 250 µg/mL (≈ 734 µM)
MIC (Klebsiella aerogenes [15]): 500 µg/mL (≈ 1470 µM)
MIC [16]: 500 µg/mL (≈ 1470 µM)
MIC (Enterococcus faecalis [17]): 500 µg/mL (≈ 1470 µM)
MIC (Bacillus cereus [18]): 250 µg/mL (≈ 734 µM)
MIC (Staphylococcus aureus [19]): 500 µg/mL (≈ 1470 µM)
zone of inhibition at 140 µg/disc (Candida albicans [20]): 16 mm
zone of inhibition at 140 µg/disc (Pseudomonas aeruginosa [21]): 25 mm
MIC (Bacillus subtilis [22]): 250 µg/mL (≈ 734 µM)

COc1cc(Cc2cnc(N)nc2N)cc(OC)c1OC [TRIMETHOPRIM]
MIC (Pseudomonas aeruginosa [11]): 1 µg/mL (≈ 3.44 µM)
MIC (Klebsiella pneumoniae [13]): 1 µg/mL (≈ 3.44 µM)
MIC (Pseudomonas fluorescens [14]): 1 µg/mL (≈ 3.44 µM)
MIC (Klebsiella aerogenes [15]): 1 µg/mL (≈ 3.44 µM)
MIC (Enterococcus faecalis [17]): 0.5 µg/mL (≈ 1.72 µM)
MIC (Staphylococcus aureus [19]): 1 µg/mL (≈ 3.44 µM)
zone of inhibition at 30 µg/disc (Bacillus subtilis [23]; read-out: DIZ): 20 mm
zone of inhibition at 30 µg/disc (Bacillus cereus [24]; read-out: DIZ): 0 mm
zone of inhibition at 30 µg/disc (Enterococcus faecalis [25]; read-out: DIZ): 27 mm
zone of inhibition at 30 µg/disc (Staphylococcus aureus [26]; read-out: DIZ): 37 mm
zone of inhibition at 30 µg/disc (Candida albicans [27]; read-out: DIZ): 0 mm
zone of inhibition at 30 µg/disc (Pseudomonas aeruginosa [28]; read-out: DIZ): 31 mm
zone of inhibition at 30 µg/disc (Escherichia coli [29]; read-out: DIZ): 0 mm
zone of inhibition at 30 µg/disc (Klebsiella pneumoniae [30]; read-out: DIZ): 0 mm
zone of inhibition at 30 µg/disc (Klebsiella aerogenes [31]; read-out: DIZ): 28 mm
zone of inhibition at 30 µg/disc (Pseudomonas fluorescens [32]; read-out: DIZ): 0 mm
zone of inhibition at 30 µg/disc ([33]; read-out: DIZ): 29 mm
MIC (Bacillus subtilis [22]): 1 µg/mL (≈ 3.44 µM)

NYSTATIN
MIC (Candida albicans [10]): 0.125 µg/mL
inhibition zone (IZ) (Bacillus subtilis [23]): 0 mm
inhibition zone (IZ) (Bacillus cereus [24]): 0 mm
inhibition zone (IZ) (Enterococcus faecalis [25]): 0 mm
inhibition zone (IZ) (Staphylococcus aureus [26]): 0 mm
inhibition zone (IZ) (Candida albicans [27]): 18 mm
inhibition zone (IZ) (Pseudomonas aeruginosa [28]): 0 mm
inhibition zone (IZ) (Escherichia coli [29]): 0 mm
inhibition zone (IZ) (Klebsiella pneumoniae [30]): 0 mm
inhibition zone (IZ) (Klebsiella aerogenes [31]): 0 mm
inhibition zone (IZ) (Pseudomonas fluorescens [32]): 0 mm
inhibition zone (IZ) [33]: 0 mm
